Results as given in PubChem BioAssay (NCI).
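Step 1: Grow cells in 96-well plates. Step 2: Expose to compound for 48 hours at 5 concentrations. Step 3: Interpolate endpoints linearly; if unreached, use highest concentration. GI50 marks 50% less growth. The concentration for full growth arrest is given as TGI.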

Legend:
Assay in all cases: growth of human tumour cells (NCI), 48 h
786-0 renal = test system: 786-0 renal
A498 renal = test system: A498 renal
A549 NSCLC = test system: A549 NSCLC
ACHN renal = test system: ACHN renal
BT-549 breast = test system: BT-549 breast
CAKI-1 renal = test system: CAKI-1 renal
COLO 205 colon = test system: COLO 205 colon
DU-145 prostate = test system: DU-145 prostate
EKVX NSCLC = test system: EKVX NSCLC
HCC-2998 colon = test system: HCC-2998 colon
HCT-116 colon = test system: HCT-116 colon
HCT-15 colon = test system: HCT-15 colon
HL-60(TB) leukemia = test system: HL-60(TB) leukemia
HOP-62 NSCLC = test system: HOP-62 NSCLC
HS 578T breast = test system: HS 578T breast
IGROV1 ovarian = test system: IGROV1 ovarian
K-562 leukemia = test system: K-562 leukemia
LOX IMVI melanoma = test system: LOX IMVI melanoma
M14 melanoma = test system: M14 melanoma
MALME-3M melanoma = test system: MALME-3M melanoma
MCF7 breast = test system: MCF7 breast
MDA-MB-231 breast = test system: MDA-MB-231 breast
MDA-MB-435 = test system: MDA-MB-435
MDA-MB-468 breast = test system: MDA-MB-468 breast
MOLT-4 leukemia = test system: MOLT-4 leukemia
NCI-H23 lung = test system: NCI-H23 lung
NCI-H522 lung = test system: NCI-H522 lung
NCI/ADR-RES ovarian = test system: NCI/ADR-RES ovarian
OVCAR-3 ovarian = test system: OVCAR-3 ovarian
OVCAR-4 ovarian = test system: OVCAR-4 ovarian
OVCAR-5 ovarian = test system: OVCAR-5 ovarian
OVCAR-8 ovarian = test system: OVCAR-8 ovarian
RXF 393 renal = test system: RXF 393 renal
SF-295 CNS = test system: SF-295 CNS
SF-539 CNS = test system: SF-539 CNS
SK-MEL-2 melanoma = test system: SK-MEL-2 melanoma
SK-MEL-28 melanoma = test system: SK-MEL-28 melanoma
SK-MEL-5 melanoma = test system: SK-MEL-5 melanoma
SK-OV-3 ovarian = test system: SK-OV-3 ovarian
SN12C renal = test system: SN12C renal
SNB-19 CNS = test system: SNB-19 CNS
SNB-75 CNS = test system: SNB-75 CNS
SR leukemia = test system: SR leukemia
SW-620 colon = test system: SW-620 colon
T-47D breast = test system: T-47D breast
TK-10 renal = test system: TK-10 renal
U251 CNS = test system: U251 CNS
UACC-257 melanoma = test system: UACC-257 melanoma
UACC-62 melanoma = test system: UACC-62 melanoma
UO-31 renal = test system: UO-31 renal
CCRF-CEM leukemia = test system: CCRF-CEM leukemia
HOP-92 NSCLC = test system: HOP-92 NSCLC
HT29 colon = test system: HT29 colon
KM12 colon = test system: KM12 colon
NCI-H226 lung = test system: NCI-H226 lung
NCI-H460 lung = test system: NCI-H460 lung
PC-3 prostate = test system: PC-3 prostate
RPMI-8226 leukemia = test system: RPMI-8226 leukemia
SF-268 CNS = test system: SF-268 CNS

## CC1=C(C=O)C2=C(C)C3(CC3)[C@@](C)(O)C(=O)C2=C1
786-0 renal
  GI50: 209 nM
  TGI: 491 nM
A498 renal
  GI50: 996 nM
  TGI: 2460 nM
A549 NSCLC
  GI50: 276 nM
  TGI: 1010 nM
ACHN renal
  GI50: 229 nM
  TGI: 543 nM
BT-549 breast
  GI50: 190 nM
  TGI: 440 nM
CAKI-1 renal
  GI50: 306 nM
  TGI: 1090 nM
COLO 205 colon
  GI50: 226 nM
  TGI: 459 nM
DU-145 prostate
  GI50: 365 nM
  TGI: 1310 nM
EKVX NSCLC
  GI50: 244 nM
  TGI: 737 nM
HCC-2998 colon
  GI50: 179 nM
  TGI: 338 nM
HCT-116 colon
  GI50: 161 nM
  TGI: 317 nM
HCT-15 colon
  GI50: 180 nM
  TGI: 370 nM
HL-60(TB) leukemia
  GI50: 227 nM
  TGI: 703 nM
HOP-62 NSCLC
  GI50: 216 nM
  TGI: 518 nM
HS 578T breast
  GI50: 259 nM
  TGI: 799 nM
IGROV1 ovarian
  GI50: 236 nM
  TGI: 538 nM
K-562 leukemia
  GI50: 243 nM
  TGI: 765 nM
LOX IMVI melanoma
  GI50: 153 nM
  TGI: 295 nM
M14 melanoma
  GI50: 212 nM
  TGI: 463 nM
MALME-3M melanoma
  GI50: 180 nM
  TGI: 353 nM
MCF7 breast
  GI50: 181 nM
  TGI: 576 nM
MDA-MB-231 breast
  GI50: 194 nM
  TGI: 367 nM
MDA-MB-435
  GI50: 213 nM
  TGI: 495 nM
MDA-MB-468 breast
  GI50: 159 nM
  TGI: 344 nM
MOLT-4 leukemia
  GI50: 218 nM
  TGI: 977 nM
NCI-H23 lung
  GI50: 180 nM
  TGI: 361 nM
NCI-H522 lung
  GI50: 171 nM
  TGI: 333 nM
NCI/ADR-RES ovarian
  GI50: 321 nM
  TGI: 1310 nM
OVCAR-3 ovarian
  GI50: 250 nM
  TGI: 618 nM
OVCAR-4 ovarian
  GI50: 407 nM
  TGI: 3990 nM
OVCAR-5 ovarian
  GI50: 223 nM
  TGI: 533 nM
OVCAR-8 ovarian
  GI50: 214 nM
  TGI: 562 nM
RXF 393 renal
  GI50: 147 nM
  TGI: 293 nM
SF-295 CNS
  GI50: 194 nM
  TGI: 387 nM
SF-539 CNS
  GI50: 178 nM
  TGI: 359 nM
SK-MEL-2 melanoma
  GI50: 348 nM
  TGI: 1180 nM
SK-MEL-28 melanoma
  GI50: 284 nM
  TGI: 781 nM
SK-MEL-5 melanoma
  GI50: 187 nM
  TGI: 381 nM
SK-OV-3 ovarian
  GI50: 678 nM
  TGI: 1800 nM
SN12C renal
  GI50: 221 nM
  TGI: 523 nM
SNB-19 CNS
  GI50: 342 nM
  TGI: 1340 nM
SNB-75 CNS
  GI50: 176 nM
  TGI: 547 nM
SR leukemia
  GI50: 212 nM
  TGI: 695 nM
SW-620 colon
  GI50: 255 nM
  TGI: 694 nM
T-47D breast
  GI50: 199 nM
  TGI: 566 nM
TK-10 renal
  GI50: 519 nM
  TGI: 2320 nM
U251 CNS
  GI50: 170 nM
  TGI: 341 nM
UACC-257 melanoma
  GI50: 188 nM
  TGI: 418 nM
UACC-62 melanoma
  GI50: 179 nM
  TGI: 372 nM
UO-31 renal
  GI50: 170 nM
  TGI: 359 nM

## COc1ccc2[nH]cc(/C=N/Nc3ccc(Br)cn3)c2c1
786-0 renal
  GI50: 12600 nM
  TGI: 40100 nM
A498 renal
  GI50: 20500 nM
  TGI: 61700 nM
A549 NSCLC
  GI50: 8120 nM
  TGI: > 100000 nM
ACHN renal
  GI50: 7760 nM
  TGI: > 100000 nM
BT-549 breast
  GI50: 176 nM
  TGI: > 100000 nM
CAKI-1 renal
  GI50: 3010 nM
  TGI: > 100000 nM
CCRF-CEM leukemia
  GI50: 466 nM
  TGI: 41000 nM
COLO 205 colon
  GI50: 15700 nM
  TGI: 67900 nM
DU-145 prostate
  GI50: 13300 nM
  TGI: > 100000 nM
EKVX NSCLC
  GI50: 2710 nM
  TGI: > 100000 nM
HCC-2998 colon
  GI50: 5740 nM
  TGI: 32500 nM
HCT-116 colon
  GI50: 5970 nM
  TGI: > 100000 nM
HCT-15 colon
  GI50: 4460 nM
  TGI: > 100000 nM
HL-60(TB) leukemia
  GI50: 2540 nM
  TGI: 28300 nM
HOP-62 NSCLC
  GI50: 10100 nM
  TGI: > 100000 nM
HOP-92 NSCLC
  GI50: 2220 nM
  TGI: 19300 nM
HS 578T breast
  GI50: 6910 nM
  TGI: 68200 nM
HT29 colon
  GI50: 8770 nM
  TGI: > 100000 nM
IGROV1 ovarian
  GI50: 634 nM
  TGI: 6410 nM
K-562 leukemia
  GI50: 2940 nM
  TGI: > 100000 nM
KM12 colon
  GI50: 2710 nM
  TGI: 24700 nM
LOX IMVI melanoma
  GI50: 3400 nM
  TGI: 24700 nM
M14 melanoma
  GI50: 7270 nM
  TGI: > 100000 nM
MALME-3M melanoma
  GI50: 82700 nM
  TGI: > 100000 nM
MCF7 breast
  GI50: 1700 nM
  TGI: > 100000 nM
MDA-MB-231 breast
  GI50: 1930 nM
  TGI: 8710 nM
MDA-MB-435
  GI50: 6730 nM
  TGI: > 100000 nM
MDA-MB-468 breast
  GI50: 1740 nM
  TGI: 6400 nM
MOLT-4 leukemia
  GI50: 2850 nM
  TGI: > 100000 nM
NCI-H226 lung
  GI50: 2020 nM
  TGI: > 100000 nM
NCI-H23 lung
  GI50: 11600 nM
  TGI: > 100000 nM
NCI-H460 lung
  GI50: 7680 nM
  TGI: > 100000 nM
NCI-H522 lung
  GI50: 3110 nM
  TGI: 33500 nM
NCI/ADR-RES ovarian
  GI50: 5330 nM
  TGI: > 100000 nM
OVCAR-3 ovarian
  GI50: 11600 nM
  TGI: > 100000 nM
OVCAR-4 ovarian
  GI50: 43200 nM
  TGI: > 100000 nM
OVCAR-5 ovarian
  GI50: 4170 nM
  TGI: 79400 nM
OVCAR-8 ovarian
  GI50: 20800 nM
  TGI: > 100000 nM
PC-3 prostate
  GI50: 2550 nM
  TGI: > 100000 nM
RPMI-8226 leukemia
  GI50: 1620 nM
  TGI: 9070 nM
RXF 393 renal
  GI50: 2090 nM
  TGI: 31500 nM
SF-268 CNS
  GI50: 5230 nM
  TGI: > 100000 nM
SF-295 CNS
  GI50: 9130 nM
  TGI: 48400 nM
SF-539 CNS
  GI50: 2650 nM
  TGI: 37300 nM
SK-MEL-2 melanoma
  GI50: 21400 nM
  TGI: 81800 nM
SK-MEL-28 melanoma
  GI50: 29100 nM
  TGI: > 100000 nM
SK-MEL-5 melanoma
  GI50: 7410 nM
  TGI: 25300 nM
SK-OV-3 ovarian
  GI50: 6190 nM
  TGI: > 100000 nM
SN12C renal
  GI50: 2380 nM
  TGI: 65900 nM
SNB-19 CNS
  GI50: 20700 nM
  TGI: > 100000 nM
SNB-75 CNS
  GI50: 286 nM
  TGI: 55100 nM
SR leukemia
  GI50: 4800 nM
  TGI: 58300 nM
SW-620 colon
  GI50: 15700 nM
  TGI: > 100000 nM
T-47D breast
  GI50: 3220 nM
  TGI: > 100000 nM
TK-10 renal
  GI50: 18600 nM
  TGI: > 100000 nM
U251 CNS
  GI50: 15900 nM
  TGI: > 100000 nM
UACC-257 melanoma
  GI50: 25100 nM
  TGI: > 100000 nM
UACC-62 melanoma
  GI50: 8450 nM
  TGI: > 100000 nM
UO-31 renal
  GI50: 1090 nM
  TGI: > 100000 nM
